Columns and labels:
[1] = test system: antibodies in sera from SARS patients (sera 1a, 1b, 2, 6, 37, 62, London, SARS-yellow, SARS-green); assay type: binding, human; design: Binding of serum 6 to linear peptides of protein X1 of SARS-CoV Urbani / Binding of serum 37 to linear peptides of protein X1 of SARS-CoV Urbani / Binding of serum 6 to looped/cyclic peptide (PEPSCAN-ELISA) / Binding of serum 37 to looped/cyclic peptide (PEPSCAN-ELISA) / Binding of serum 37 to looped/cyclic peptides of protein X1 of SARS-CoV Urbani / Binding of serum 6 to linear peptides of protein X2 / Binding of serum 37 to linear peptides of protein X2 / Binding of serum 37 to looped/cyclic peptides of protein X2 of SARS-CoV Urbani / Binding of serum 6 to linear peptides of protein M of SARS-CoV Urbani / Binding of serum 37 to linear peptides of protein M of SARS-CoV Urbani / Binding of serum 6 to looped/cyclic peptides of protein M of SARS-CoV Urbani / Binding of serum 37 to looped/cyclic peptides of protein M of SARS-CoV Urbani / Binding of serum 6 to linear peptides of protein X3 of SARS-CoV Urbani / Binding of serum 37 to linear peptides of protein X3 of SARS-CoV Urbani / Binding of serum 37 to looped/cyclic peptides of protein X3 of SARS-CoV Urbani / Binding of serum 6 to linear peptides of protein X4 of SARS-CoV Urbani / Binding of serum 37 to linear peptides of protein X4 of SARS-CoV Urbani / Binding of serum 37 to looped/cyclic peptides of protein X4 of SARS-CoV Urbani / Binding of serum 6 to linear peptides of protein X5 of SARS-CoV Urbani / Binding of serum 37 to linear peptides of protein X5 of SARS-CoV Urbani / Binding of serum 37 to looped/cyclic peptides of protein X5 of SARS-CoV Urbani / Binding of serum 6 to linear peptides of protein N of SARS-CoV Urbani / Binding of serum 37 to linear peptides of protein N of SARS-CoV Urbani / Binding of serum 6 to linear peptide (PEPSCAN-ELISA) / Binding of serum 1a to looped/cyclic peptides of protein N of SARS-CoV Urbani / Binding of serum 1b to looped/cyclic peptides of protein N of SARS-CoV Urbani / Binding of serum 2 to looped/cyclic peptides of protein N of SARS-CoV Urbani / Binding of serum 6 to looped/cyclic peptides of protein N of SARS-CoV Urbani / Binding of serum 37 to looped/cyclic peptides of protein N of SARS-CoV Urbani / Binding of serum 62 to looped/cyclic peptides of protein N of SARS-CoV Urbani / Binding of serum London to looped/cyclic peptides of protein N of SARS-CoV Urbani / Binding of serum SARS-green to looped/cyclic peptides of protein N of SARS-CoV Urbani: unit not given here
[2] = test system: control sera (pooled serum of ten healthy LUMC hospital workers; commercial negative donor pooled serum from the Dutch bloodbank); assay type: binding, human; design: Binding of Control serum LUMC to linear peptides / Binding of Control serum Blood-bank to linear peptides / Binding of Control serum LUMC to looped peptides / Binding of Control Serum Blood-Bank to Looped peptides / Binding of Control serum LUMC to linear peptides of the protein M of SARS-CoV Urbani / Binding of Control serum Blood-bank to linear peptides of the protein M of SARS-CoV Urbani / Binding of Control serum LUMC to looped peptides of the protein M of SARS-CoV Urbani / Binding of Control Serum Blood-Bank to Looped peptides of the protein M of SARS-CoV Urbani: unit not given here
[3] = test system: rabbit serum obtained by immunizing a rabbit with the SARS-CoV strain Frankfurt 1; assay type: binding; design: Binding of a rabbit serum to linear peptides / Binding of a rabbit serum to looped peptides / Rabbit serum linear peptides / Rabbit serum looped peptides / Binding of a rabbit serum to linear peptides of protein N of SARS-CoV Urbani (Rabbit serum linear peptides) / Binding of a rabbit serum to looped/cyclic peptides of protein N of SARS-CoV Urbani (Rabbit serum looped peptides): unit not given here

Sequence	Recognition of the peptide by sera of SARS-CoV infected individuals, and form (linear, looped/cyclic) in which it is recognized [1]	Rabbit serum linear peptides [3]	Rabbit serum looped peptides [3]	Binding of serum 1a to linear peptides of protein X1 of SARS-CoV Urbani [1]	Binding of serum 1a to looped/cyclic peptides of protein X1 of SARS-CoV Urbani [1]	Binding of serum 1b to linear peptides of protein X1 of SARS-CoV Urbani [1]	Binding of serum 1b to looped/cyclic peptides of protein X1 of SARS-CoV Urbani [1]	Binding of serum 2 to linear peptides of protein X1 of SARS-CoV Urbani [1]	Binding of serum 6 to linear peptides of protein X1 of SARS-CoV Urbani [1]	Binding of serum 37 to linear peptides of protein X1 of SARS-CoV Urbani [1]	Binding of serum 62 to linear peptides of protein X1 of SARS-CoV Urbani [1]	Binding of serum London to linear peptides of protein X1 of SARS-CoV Urbani [1]	Binding of serum SARS-green to linear peptides of protein X1 of SARS-CoV Urbani [1]	Binding of serum SARS-yellow to linear peptides of protein X1 of SARS-CoV Urbani [1]	Binding of Control Serum Blood-Bank to Looped peptides [2]	Binding of Control serum Blood-bank to linear peptides [2]	Binding of Control serum LUMC to linear peptides [2]	Binding of Control serum LUMC to looped peptides [2]	Binding of a rabbit serum to linear peptides [3]	Binding of a rabbit serum to looped peptides [3]	other results
PLRGTIVTRPLMESE	recognized in looped/cyclic form	0.4	0.4																		Binding of serum 1a to linear peptides of protein M of SARS-CoV Urbani [1]: 0.8; Binding of serum 1b to linear peptides of protein M of SARS-CoV Urbani [1]: 0.7; Binding of serum 2 to linear peptides of protein M of SARS-CoV Urbani [1]: 0.4; Binding of serum 6 to linear peptides of protein M of SARS-CoV Urbani [1]: 0.4; Binding of serum 37 to linear peptides of protein M of SARS-CoV Urbani [1]: 0.8; Binding of serum 62 to linear peptides of protein M of SARS-CoV Urbani [1]: 0.7; Binding of serum London to linear peptides of protein M of SARS-CoV Urbani [1]: 0.3; Binding of serum SARS-green to linear peptides of protein M of SARS-CoV Urbani [1]: 0.5; Binding of serum SARS-yellow to linear peptides of protein M of SARS-CoV Urbani [1]: 0.0; Binding of Control Serum Blood-Bank to Looped peptides of the protein M of SARS-CoV Urbani [2]: 0.5; Binding of Control serum Blood-bank to linear peptides of the protein M of SARS-CoV Urbani [2]: 0.6; Binding of Control serum LUMC to linear peptides of the protein M of SARS-CoV Urbani [2]: 0.3; Binding of Control serum LUMC to looped peptides of the protein M of SARS-CoV Urbani [2]: 0.8
PNVQIHTIDGSSGVA				0.6	0.4	0.4	0.3	0.5	0.4	0.7	0.6	0.3	0.2	0.4	0.5	0.5	0.6	0.5	0.1	0.4	Binding of serum 2 to looped/cyclic peptides of protein X1 of SARS-CoV Urbani [1]: 0.2; Binding of serum 6 to looped/cyclic peptides of protein X1 of SARS-CoV Urbani [1]: 0.2; Binding of serum 37 to looped/cyclic peptides of protein X1 of SARS-CoV Urbani [1]: 0.3; Binding of serum 62 to looped/cyclic peptides of protein X1 of SARS-CoV Urbani [1]: 0.3; Binding of serum London to looped/cyclic peptides of protein X1 of SARS-CoV Urbani [1]: 0.2; Binding of serum SARS-green to looped/cyclic peptides of protein X1 of SARS-CoV Urbani [1]: 0.2; Binding of serum SARS-yellow to looped/cyclic peptides of protein X1 of SARS-CoV Urbani [1]: 0.2
PYNSVTDTIVVTEGD				0.5	0.4	0.4	0.3	0.4	0.4	0.5	0.4	0.2	0.2	0.3	0.4	0.4	0.3	0.4	0.1	0.3	Binding of serum 2 to looped/cyclic peptides of protein X1 of SARS-CoV Urbani [1]: 0.3; Binding of serum 6 to looped/cyclic peptides of protein X1 of SARS-CoV Urbani [1]: 0.1; Binding of serum 37 to looped/cyclic peptides of protein X1 of SARS-CoV Urbani [1]: 0.3; Binding of serum 62 to looped/cyclic peptides of protein X1 of SARS-CoV Urbani [1]: 0.3; Binding of serum London to looped/cyclic peptides of protein X1 of SARS-CoV Urbani [1]: 0.2; Binding of serum SARS-green to looped/cyclic peptides of protein X1 of SARS-CoV Urbani [1]: 0.5; Binding of serum SARS-yellow to looped/cyclic peptides of protein X1 of SARS-CoV Urbani [1]: 0.4
QASLPFGWLVIGVAF				0.7		0.6		0.6	0.4	0.6	0.6	0.2	0.1	0.5	0.4	0.7	0.6	0.4	0.3	0.4	Binding of serum 1a to looped/cyclic peptide (PEPSCAN-ELISA) [1]: 0.4; Binding of serum 1b to looped/cyclic peptide (PEPSCAN-ELISA) [1]: 0.3; Binding of serum 2 to looped/cyclic peptide (PEPSCAN-ELISA) [1]: 0.2; Binding of serum 6 to looped/cyclic peptide (PEPSCAN-ELISA) [1]: 0.3; Binding of serum 37 to looped/cyclic peptide (PEPSCAN-ELISA) [1]: 0.4; Binding of serum 62 to looped/cyclic peptide (PEPSCAN-ELISA) [1]: 0.4; Binding of serum London to looped/cyclic peptide (PEPSCAN-ELISA) [1]: 0.2; Binding of serum SARS-green to looped/cyclic peptide (PEPSCAN-ELISA) [1]: 0.2; Binding of serum SARS-yellow to looped/cyclic peptide (PEPSCAN-ELISA) [1]: 0.2
QEEVQQELYSPLFLI	recognized in looped/cyclic form	0.4	0.4												0.7	0.8	0.8	0.8			Binding of serum 1a to linear peptides of protein X4 of SARS-CoV Urbani [1]: 0.8; Binding of serum 1b to linear peptides of protein X4 of SARS-CoV Urbani [1]: 0.9; Binding of serum 2 to linear peptides of protein X4 of SARS-CoV Urbani [1]: 0.6; Binding of serum 6 to linear peptides of protein X4 of SARS-CoV Urbani [1]: 0.6; Binding of serum 37 to linear peptides of protein X4 of SARS-CoV Urbani [1]: 0.8; Binding of serum 62 to linear peptides of protein X4 of SARS-CoV Urbani [1]: 0.8; Binding of serum London to linear peptides of protein X4 of SARS-CoV Urbani [1]: 0.8; Binding of serum SARS-green to linear peptides of protein X4 of SARS-CoV Urbani [1]: 1.0; Binding of serum SARS-yellow to linear peptides of protein X4 of SARS-CoV Urbani [1]: 0.8

From patent US20070128217A1 (priority 2003, published 2007)
